Laboratory results reported in patent US7445894B2, “Compositions and methods for detection and isolation of phosphorylated molecules” (priority 2002, dated 2008).

What was measured:
pepsin = pepsin (Sus scrofa, UniProt P00791); experiment: Detection of phosphoproteins in SDS-polyacrylamide gels with binding solution; conditions: monophosphorylated protein, binding solution with gallium chloride, SDS polyacrylamide mini-gel
Procedure: (§1) Proteins were loaded in two-fold dilution series on SDS polyacrylamide mini-gels from 2 ng-1000 ng; each protein sample was done in series in four replicate gels. The phosphoproteins were α-casein (7 or 8 phosphates); dephosphorylated α-casein (1 or 2 phosphates); β-casein (5 phosphates); ovalbumin (2 phosphates) and pepsin (1 phosphate). BSA contains no phosphates and was used as a negative control.
(§2) Phosphoproteins were separated by SDS-polyacrylamide gel electrophoresis utilizing a 4% T, 2.6% C stacking gel, pH 6.8 and 13% T, 2.6% C separating gel, and pH 8.8, according to standard procedures. % T is the total monomer concentration (acrylamide+crosslinker) expressed in grams per 100 mL and % C is the percentage crosslinker (e.g., N,N′-methylene-bis-acrylamide, N,N′-diacryloylpiperazine or other suitable agent). The separating gels were 8 cm wide by 5 cm high and […] in thickness. After electrophoresis, the gels were fixed by immersing them in 100 mL 45% methanol and 5% acetic acid for 90 minutes. The gels were washed twice in water for a total of 30 minutes. The gels were then added to a binding solution of the invention (Example 1E) and incubated for 120 minutes at room temperature with gentle orbital shaking, typically 50 rpm. The binding buffer contained 50 mM NaOAc (pH 4.0), 250 mM sodium chloride, 20% v/v 1,2-propanediol, 1 μM gallium chloride. […]

β-casein = molecular target: T1, β-casein (Bos taurus, UniProt P02666); experiment: as above; conditions: pentaphosphorylated protein, binding solution with gallium chloride, SDS polyacrylamide mini-gel
T1 sequence (P02666 16-224): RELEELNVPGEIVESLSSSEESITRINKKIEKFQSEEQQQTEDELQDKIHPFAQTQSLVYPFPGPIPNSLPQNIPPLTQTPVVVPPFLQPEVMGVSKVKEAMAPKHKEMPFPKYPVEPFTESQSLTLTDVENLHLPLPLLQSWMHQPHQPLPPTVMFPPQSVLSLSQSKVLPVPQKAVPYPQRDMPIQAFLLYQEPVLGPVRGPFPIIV
Procedure: as §1, §2

pDSIP = molecular target: T2, pDSIP (Oryctolagus cuniculus, UniProt P01158); experiment: Phosphopeptide detection on HydroGel microarray; conditions: monophosphorylated peptide, binding solution with gallium chloride
T2 construct: purchased SynPep Corporation
Procedure: The peptide was loaded in a two-fold dilution series from […] on the microarray.
Two peptides, Kemptide and pDSIP, were arrayed on to HydroGel coated slides (Perkin Elmer) from a source plate (384-well) with a concentration of 0.03125 to 2 mg/mL peptide in water. The amino acid sequence of Kemptide is LRRASLG (SEQ ID NO. 1, MW 771.9) the amino acid sequence of pDSIP is […] (SEQ ID NO. 2, MW 929.5), wherein the serine residue is substituted with PO2H. Arrays were spotted using a manual glass slide arrayer (V & P Scientific, San Diego, Calif.) fixed with 4 rows of 8 pins (32 total), ˜500 micron diameter spot size, […] horizontal pitch and 750 micron vertical pitch (pitch=center to center spacing of spots). The hand arrayer collected 6 nL of peptide from the source plate and transferred ˜6 nL to the array surface by direct contact. The resultant peptide concentration was 0.18 to 12 ng/spot. Peptides were arrayed in replicates of 6, resulting in an array of 84 spots. For specific detection of pDSIP, the phosphopeptide, slides were incubated for 1 hour on a rotator in 1 μM dye of compound 2 in buffer containing 0.5 M NaCl, 20% 1,2-propanediol, 1 μM GaCl3, and 0.05 M NaOAc, pH 4.0. Slides were then washed for 1 hour on a rotator in 0.05 M NaOAc, pH 4.0, containing 10% methanol followed by a 15-minute water wash. […]

Sequence of pepsin (P00791 60-385): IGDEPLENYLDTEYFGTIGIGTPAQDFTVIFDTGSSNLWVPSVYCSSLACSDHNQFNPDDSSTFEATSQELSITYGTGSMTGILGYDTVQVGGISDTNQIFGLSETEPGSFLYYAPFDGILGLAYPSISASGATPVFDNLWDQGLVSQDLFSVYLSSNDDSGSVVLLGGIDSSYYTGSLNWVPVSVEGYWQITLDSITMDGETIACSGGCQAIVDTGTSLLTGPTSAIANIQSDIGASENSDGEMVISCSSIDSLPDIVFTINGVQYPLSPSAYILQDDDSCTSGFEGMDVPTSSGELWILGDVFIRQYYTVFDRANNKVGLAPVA

Rhod-5F [Compound 2]
amount detectable in gel (pepsin): 8 ng | amount detectable in gel (β-casein): 1 to 2 ng | amount detectable on HydroGel microarray (pDSIP): 300 fg
